From patent US9926282B2, “Phthalazinones and isoquinolinones as rock inhibitors” (BRISTOL-MYERS SQUIBB COMPANY, priority 2013, dated 2018)
Counter-ions that a name gives are not always drawn.

Experiments:
[1] = molecular target: ROCK2 (Homo sapiens (Human), UniProt O75116); test: ROCK assay (LABCHIP peptide phosphorylation), ROCK2; type: biochemical; details: 5 μM ATP, 1.5 μM peptide substrate
[2] = molecular target: ROCK1 (Homo sapiens (Human), UniProt Q13464); test: ROCK assay (LABCHIP peptide phosphorylation), ROCK1; type: biochemical; details: 5 μM ATP, 1.5 μM peptide substrate; read-out: ROCK1 IC50
Sequence of ROCK1 (Q13464 whole entry, species assumed): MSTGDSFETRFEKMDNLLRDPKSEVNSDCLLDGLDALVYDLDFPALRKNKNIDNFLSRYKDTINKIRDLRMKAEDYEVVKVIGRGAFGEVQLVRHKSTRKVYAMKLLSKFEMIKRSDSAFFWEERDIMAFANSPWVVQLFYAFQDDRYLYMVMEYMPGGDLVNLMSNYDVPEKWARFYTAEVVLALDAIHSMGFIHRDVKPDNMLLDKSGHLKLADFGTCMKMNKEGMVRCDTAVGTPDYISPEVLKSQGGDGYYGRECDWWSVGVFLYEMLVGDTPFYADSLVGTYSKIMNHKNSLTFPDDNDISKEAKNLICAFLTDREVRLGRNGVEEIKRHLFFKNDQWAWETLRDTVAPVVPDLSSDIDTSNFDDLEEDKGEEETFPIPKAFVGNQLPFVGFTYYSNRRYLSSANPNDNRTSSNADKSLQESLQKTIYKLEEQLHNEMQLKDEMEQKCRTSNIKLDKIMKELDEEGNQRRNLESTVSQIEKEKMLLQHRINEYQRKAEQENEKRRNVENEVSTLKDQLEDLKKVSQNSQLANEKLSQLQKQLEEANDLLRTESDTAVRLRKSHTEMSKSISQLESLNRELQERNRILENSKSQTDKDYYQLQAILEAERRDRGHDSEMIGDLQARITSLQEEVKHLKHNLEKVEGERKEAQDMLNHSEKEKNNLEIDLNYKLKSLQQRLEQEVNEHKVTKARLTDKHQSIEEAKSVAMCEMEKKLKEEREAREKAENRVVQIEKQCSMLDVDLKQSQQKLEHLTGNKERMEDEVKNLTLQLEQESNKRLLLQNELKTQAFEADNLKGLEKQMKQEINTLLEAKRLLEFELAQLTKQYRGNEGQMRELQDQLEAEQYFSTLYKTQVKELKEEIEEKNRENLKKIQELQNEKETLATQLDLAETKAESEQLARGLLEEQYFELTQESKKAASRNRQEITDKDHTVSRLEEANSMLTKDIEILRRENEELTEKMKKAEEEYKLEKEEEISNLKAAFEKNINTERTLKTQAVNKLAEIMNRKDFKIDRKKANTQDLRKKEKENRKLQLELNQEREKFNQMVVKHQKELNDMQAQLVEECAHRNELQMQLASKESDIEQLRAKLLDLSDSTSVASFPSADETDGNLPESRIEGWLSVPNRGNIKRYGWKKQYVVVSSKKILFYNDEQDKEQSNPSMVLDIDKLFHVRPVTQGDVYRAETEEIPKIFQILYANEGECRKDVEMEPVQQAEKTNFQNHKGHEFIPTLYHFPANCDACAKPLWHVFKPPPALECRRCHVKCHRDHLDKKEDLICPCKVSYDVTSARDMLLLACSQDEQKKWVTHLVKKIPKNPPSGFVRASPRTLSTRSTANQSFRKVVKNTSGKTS

Sequence of ROCK2 (O75116 whole entry, species assumed): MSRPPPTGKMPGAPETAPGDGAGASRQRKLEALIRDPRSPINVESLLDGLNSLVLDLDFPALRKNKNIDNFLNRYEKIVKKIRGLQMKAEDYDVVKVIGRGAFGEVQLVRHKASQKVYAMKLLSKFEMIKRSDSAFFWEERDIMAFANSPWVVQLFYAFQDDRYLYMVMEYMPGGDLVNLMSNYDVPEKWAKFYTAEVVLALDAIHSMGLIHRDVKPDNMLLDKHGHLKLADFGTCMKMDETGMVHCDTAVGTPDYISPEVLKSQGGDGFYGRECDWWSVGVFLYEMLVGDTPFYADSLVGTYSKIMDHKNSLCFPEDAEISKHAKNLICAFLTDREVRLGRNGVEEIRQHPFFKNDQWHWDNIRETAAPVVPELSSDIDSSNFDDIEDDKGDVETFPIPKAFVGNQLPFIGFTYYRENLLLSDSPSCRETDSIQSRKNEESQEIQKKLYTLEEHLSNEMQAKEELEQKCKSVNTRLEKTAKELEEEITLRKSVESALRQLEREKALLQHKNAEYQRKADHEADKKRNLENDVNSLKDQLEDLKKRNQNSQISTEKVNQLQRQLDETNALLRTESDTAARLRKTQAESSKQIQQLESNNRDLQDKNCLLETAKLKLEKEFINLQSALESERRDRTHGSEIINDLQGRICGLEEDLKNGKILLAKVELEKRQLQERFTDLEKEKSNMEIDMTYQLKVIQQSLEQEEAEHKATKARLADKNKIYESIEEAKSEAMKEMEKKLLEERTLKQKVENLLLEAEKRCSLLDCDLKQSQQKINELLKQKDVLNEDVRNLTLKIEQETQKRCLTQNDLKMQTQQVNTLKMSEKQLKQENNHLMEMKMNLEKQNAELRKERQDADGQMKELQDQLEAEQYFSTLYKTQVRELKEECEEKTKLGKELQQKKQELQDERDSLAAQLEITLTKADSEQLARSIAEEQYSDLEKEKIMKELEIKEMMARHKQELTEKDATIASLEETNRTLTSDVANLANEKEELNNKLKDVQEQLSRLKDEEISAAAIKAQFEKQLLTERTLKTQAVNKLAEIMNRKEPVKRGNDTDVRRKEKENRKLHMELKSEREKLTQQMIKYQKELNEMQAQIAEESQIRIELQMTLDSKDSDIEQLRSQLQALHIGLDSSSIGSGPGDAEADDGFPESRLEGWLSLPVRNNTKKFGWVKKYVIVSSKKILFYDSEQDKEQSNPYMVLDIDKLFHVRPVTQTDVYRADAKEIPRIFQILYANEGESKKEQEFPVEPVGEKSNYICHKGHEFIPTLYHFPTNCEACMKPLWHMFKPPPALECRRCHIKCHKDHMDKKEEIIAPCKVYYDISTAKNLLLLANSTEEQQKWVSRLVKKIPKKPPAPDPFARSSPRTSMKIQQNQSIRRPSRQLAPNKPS

Row | Compound | IC50 [1] | IC50 [2]
1 | 2-[4-(4-oxo-3,4- dihydrophthalazin-1- yl)phenyl]-N-[(1S,2R)- 2-phenylcyclopropyl] acetamide [Example 18] | 1000 to 50000 nM | 1000 to 50000 nM
2 | O=C(Cc1ccc(-c2n[nH]c(=O)c3ccccc23)cc1)N1Cc2ccccc2C1 [Example 1, 4-(4-(2-(Isoindolin-2-yl)-2-oxoethyl)phenyl)phthalazin-1(2H)-one] | 0.1 to 100 nM | 
3 | O=C(Cc1ccc(-c2n[nH]c(=O)c3ccccc23)cc1)N1Cc2ccc(F)cc2C1 [Example 2, 4-(4-(2-(5-Fluoroisoindolin-2-yl)-2-oxoethyl)phenyl)phthalazin-1 (2H)-one] | 0.1 to 100 nM | 101 to 1000 nM
4 | COc1ccc2c(c1)CN(C(=O)Cc1ccc(-c3n[nH]c(=O)c4ccccc34)cc1)C2 [Example 3, 4-(4-(2-(5-Methoxyisoindolin-2-yl)-2-oxoethyl)phenyl)phthalazin-1(2H)-one] | 0.1 to 100 nM | 101 to 1000 nM
5 | O=C(Cc1ccc(-c2n[nH]c(=O)c3ccccc23)cc1)N1CCc2ccccc2C1 [Example 4, 4-{4-[2-oxo-2-(1,2,3,4-tetrahydroisoquinolin-2-yl)ethyl]phenyl}-1,2-dihydrophthalazin-1-one] | 101 to 1000 nM | 
6 | O=C(Cc1ccc(-c2n[nH]c(=O)c3ccccc23)cc1)Nc1cccnc1 [Example 5, 2-[4-(4-oxo-3,4-dihydrophthalazin-1-yl)phenyl]-N-(pyridin-3-yl)acetamide] | 101 to 1000 nM | 
7 | O=C(Cc1ccc(-c2n[nH]c(=O)c3ccccc23)cc1)NCc1ccccc1 [Example 6, N-benzyl-2-[4-(4-oxo-3,4-dihydrophthalazin-1-yl)phenyl]acetamide] | 101 to 1000 nM | 
8 | O=C(Cc1ccc(-c2n[nH]c(=O)c3ccccc23)cc1)Nc1ccncc1 [Example 7, 2-[4-(4-oxo-3,4-dihydrophthalazin-1-yl)phenyl]-N-(pyridin-4-yl)acetamide] | 0.1 to 100 nM | 
9 | CN(Cc1ccccc1)C(=O)Cc1ccc(-c2n[nH]c(=O)c3ccccc23)cc1 [Example 8, N-benzyl-N-methyl-2-[4-(4-oxo-3,4-dihydrophthalazin-1-yl)phenyl]acetamide] | 1000 to 50000 nM | 
10 | O=C(Cc1ccc(-c2n[nH]c(=O)c3ccccc23)cc1)Nc1nc2ccccc2[nH]1 [Example 9, N-(1H-1,3-benzodiazol-2-yl)-2-[4-(4-oxo-3,4-dihydrophthalazin-1-yl)phenyl]acetamide] | 0.1 to 100 nM | 1000 to 50000 nM
11 | O=C(Cc1ccc(-c2n[nH]c(=O)c3ccccc23)cc1)Nc1nc2ccccc2o1 [Example 10, N-(1,3-benzoxazol-2-yl)-2-[4-(4-oxo-3,4-dihydrophthalazin-1-yl)phenyl]acetamide] | 0.1 to 100 nM | 101 to 1000 nM
12 | O=C(Cc1ccc(-c2n[nH]c(=O)c3ccccc23)cc1)N1CCC(c2ccccc2)CC1 [Example 11, 4-{4-[2-oxo-2-(4-phenylpiperidin-1-yl)ethyl]phenyl}-1,2-dihydrophthalazin-1-one] | 101 to 1000 nM | 1000 to 50000 nM
13 | O=C(Cc1ccc(-c2n[nH]c(=O)c3ccccc23)cc1)N1CCN(Cc2ccccc2)CC1 [Example 12, 4-{4-[2-(4-benzylpiperazin-1-yl)-2-oxoethyl]phenyl}-1,2-dihydrophthalazin-1-one] | 1000 to 50000 nM | 1000 to 50000 nM
14 | COC[C@@H]1CCCN1C(=O)Cc1ccc(-c2n[nH]c(=O)c3ccccc23)cc1 [Example 13, 4-(4-{2-[(2S)-2-(methoxymethyl)pyrrolidin-1-yl]-2-oxoethyl}phenyl)-1,2-dihydrophthalazin-1-one] | 1000 to 50000 nM | 1000 to 50000 nM
15 | O=C(Oc1ccc(-c2n[nH]c(=O)c3ccccc23)cc1)N1Cc2ccccc2C1 [Example 68, 4-(4-Oxo-3,4-dihydrophthalazin-1-yl)phenyl isoindoline-2-carboxylate] | 0.1 to 100 nM | 
16 | CC(C)(O)Cn1nc(C(=O)Nc2ccc(-c3n[nH]c(=O)c4ccccc34)cc2F)c2ccccc21 [Example 358, N-(2-Fluoro-4-(4-oxo-3,4-dihydrophthalazin-1-yl)phenyl)-1-(2-hydroxy-2-methylpropyl)-1H-indazole-3-carboxamide] |  | 101 to 1000 nM
17 | O=C(Nc1ccc(-c2n[nH]c(=O)c3ccccc23)c(CO)c1)c1nn(CCC2CCOCC2)c2ccccc12 [Example 361, N-(3-(Hydroxymethyl)-4-(4-oxo-3,4-dihydrophthalazin-1-yl)phenyl)-1-(2-(tetrahydro-2H-pyran-4-yl)ethyl)-1H-indazole-3-carboxamide] |  | 101 to 1000 nM

The remaining lines, values ahead:

Row | IC50 [1] | IC50 [2] | Compound
18 | 1000 to 50000 nM | 1000 to 50000 nM | O=C(Cc1ccc(-c2n[nH]c(=O)c3ccccc23)cc1)NCC1CC1 [Example 14, N-(cyclopropylmethyl)-2-[4-(4-oxo-3,4-dihydrophthalazin-1-yl)phenyl]acetamide]
19 | 1000 to 50000 nM | 1000 to 50000 nM | O=C(Cc1ccc(-c2n[nH]c(=O)c3ccccc23)cc1)N1CCN(c2ncccn2)CC1 [Example 15, 4-(4-{2-oxo-2-[4-(pyrimidin-2-yl)piperazin-1-yl]ethyl}phenyl)-1,2-dihydrophthalazin-1-one]
20 | 1000 to 50000 nM | 1000 to 50000 nM | COc1ccc(N2CCN(C(=O)Cc3ccc(-c4n[nH]c(=O)c5ccccc45)cc3)CC2)cc1 [Example 16, 4-(4-{2-[4-(4-methoxyphenyl)piperazin-1-yl]-2-oxoethyl}phenyl)-1,2-dihydrophthalazin-1-one]
21 | 0.1 to 100 nM | 1000 to 50000 nM | O=C(Cc1ccc(-c2n[nH]c(=O)c3ccccc23)cc1)N1CCC(Cc2ccccc2)CC1 [Example 17, 4-{4-[2-(4-benzylpiperidin-1-yl)-2-oxoethyl]phenyl}-1,2-dihydrophthalazin-1-one]
22 | 1000 to 50000 nM | 1000 to 50000 nM | O=C(Cc1ccc(-c2n[nH]c(=O)c3ccccc23)cc1)NC1CCC1 [Example 19, N-cyclobutyl-2-[4-(4-oxo-3,4-dihydrophthalazin-1-yl)phenyl]acetamide]
23 |  | 1000 to 50000 nM | CC1(C)OB(c2ccc(CC(=O)N3Cc4ccccc4C3)c(F)c2)OC1(C)C [Example 36, 2-(2-Fluoro-4-(4,4,5,5-tetramethyl-1,3,2-dioxaborolan-2-yl)phenyl)-1-(isoindolin-2-yl)ethanone]
24 | 0.1 to 100 nM |  | O=C(Nc1ccc(-c2n[nH]c(=O)c3ccccc23)cc1)c1csc(-c2ccncc2)n1 [Example 45, N-(4-(4-Oxo-3,4-dihydrophthalazin-1-yl)phenyl)-2-(pyridin-4-yl)thiazole-4-carboxamide]
25 | 0.1 to 100 nM |  | O=C(Nc1ccc(-c2n[nH]c(=O)c3ccccc23)cc1)c1csc(-c2cc(F)cc(F)c2)n1 [Example 49, 2-(3,5-difluorophenyl)-N-[4-(4-oxo-3,4-dihydrophthalazin-1-yl)phenyl]-1,3-thiazole-4-carboxamide]
26 |  | 101 to 1000 nM | O=c1[nH]nc(-c2ccc(Nc3nc4ccccc4s3)cc2)c2ccccc12 [Example 84]
27 |  | 101 to 1000 nM | Cc1ccc2oc(Nc3ccc(-c4n[nH]c(=O)c5ccccc45)cc3)nc2c1 [Example 86, 4-{4-[(5-Methyl-1,3-benzoxazol-2-yl)amino]phenyl}-1,2-dihydrophthalazin-1-one]
28 |  | 101 to 1000 nM | O=c1[nH]nc(-c2ccc(Nc3nnc(-c4ccccc4)s3)cc2)c2ccccc12 [Example 87, 4-(4-((5-Phenyl-1,3,4-thiadiazol-2-yl)amino)phenyl)phthalazin-1(2H)-one]
29 |  | 101 to 1000 nM | O=C(Nc1ccc(-c2n[nH]c(=O)c3ccccc23)cc1)c1cn2ccnc(Cl)c2n1 [Example 124, 8-chloro-N-[4-(4-oxo-3,4-dihydrophthalazin-1-yl)phenyl]imidazo[1,2-a]pyrazine-2-carboxamide]
30 |  | 101 to 1000 nM | O=C(Nc1ccc(-c2n[nH]c(=O)c3ccccc23)cc1)c1cnn2ccc(OCCO)cc12 [Example 186, 5-(2-hydroxyethoxy)-N-[4-(4-oxo-3,4-dihydrophthalazin-1-yl)phenyl]pyrazolo[1,5-a]pyridine-3-carboxamide]
31 |  | 101 to 1000 nM | O=C(Nc1ccc(-c2c[nH]c(=O)c3ccccc23)cc1)c1ccc(N2CCOCC2)cc1 [Example 250, 4-Morpholino-N-(4-(1-oxo-1,2-dihydroisoquinolin-4-yl)phenyl)benzamide]
32 |  | 101 to 1000 nM | O=C(Cc1ccc(-c2c[nH]c(=O)c3ccccc23)c(F)c1)N1Cc2ccccc2C1 [Example 256, 4-(2-Fluoro-4-(2-(isoindolin-2-yl)-2-oxoethyl)phenyl)isoquinolin-1(2H)-one]
33 |  | 0.1 to 100 nM | O=C(Nc1ccc(-c2n[nH]c(=O)c3ccccc23)cc1)c1cnn(CC2CC2)c1 [Example 375, 1-(Cyclopropylmethyl)-N-(4-(4-oxo-3,4-dihydrophthalazin-1-yl)phenyl)-1H-pyrazole-4-carboxamide, TFA]
34 |  | 101 to 1000 nM | O=C(Nc1ccc(-c2n[nH]c(=O)c3ccccc23)cc1)c1cnn(CC(F)(F)F)c1 [Example 376, N-(4-(4-Oxo-3,4-dihydrophthalazin-1-yl)phenyl)-1-(2,2,2-trifluoroethyl)-1H-pyrazole-4-carboxamide, TFA]
35 |  | 101 to 1000 nM | O=C(Nc1ccc(-c2n[nH]c(=O)c3ccccc23)cc1)c1cnn(CC(F)(F)C(F)F)c1 [Example 383, N-(4-(4-Oxo-3,4-dihydrophthalazin-1-yl)phenyl)-1-(2,2,3,3-tetrafluoropropyl)-1H-pyrazole-4-carboxamide, TFA]
36 |  | 0.1 to 100 nM | O=C(Nc1ccc(-c2n[nH]c(=O)c3ccccc23)cc1)c1cnn(C2CCC2)c1 [Example 385, TFA]
37 |  | 1000 to 50000 nM | CC(O)Cn1cc(C(=O)Nc2ccc(-c3n[nH]c(=O)c4ccccc34)cc2)cn1 (stereo not shown) [Example 387, 1-(2-Hydroxypropyl)-N-(4-(4-oxo-3,4-dihydrophthalazin-1-yl)phenyl)-1H-pyrazole-4-carboxamide]
38 |  | 101 to 1000 nM | O=C(Nc1ccc(-c2n[nH]c(=O)c3ccccc23)cc1)c1cn[nH]c1 [Example 391, N-(4-(4-Oxo-3,4-dihydrophthalazin-1-yl)phenyl)-1H-pyrazole-4-carboxamide, TFA]
39 |  | 101 to 1000 nM | O=C(Nc1ccc(-c2n[nH]c(=O)c3ccccc23)cc1)c1cnn(C2CCS(=O)(=O)C2)c1 (stereo not shown) [Example 396, 1-(1,1-Dioxidotetrahydrothiophen-3-yl)-N-(4-(4-oxo-3,4-dihydrophthalazin-1-yl)phenyl)-1H-pyrazole-4-carboxamide, TFA]
